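Test compounds were applied to cells in 96-well plates for 48 hours at 5 doses. GI50 is the concentration that inhibits growth by half. TGI marks complete inhibition of growth.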
Tests used:
Assay in all cases: NCI-60 cell line screen, 48 h
A549 NSCLC = tested on: A549 NSCLC
DU-145 prostate = tested on: DU-145 prostate
HCC-2998 colon = tested on: HCC-2998 colon
HOP-92 NSCLC = tested on: HOP-92 NSCLC
HT29 colon = tested on: HT29 colon
NCI-H460 lung = tested on: NCI-H460 lung
SR leukemia = tested on: SR leukemia
TK-10 renal = tested on: TK-10 renal
U251 CNS = tested on: U251 CNS
SK-OV-3 ovarian = tested on: SK-OV-3 ovarian

Compound | TGI (A549 NSCLC) | TGI (DU-145 prostate) | TGI (HCC-2998 colon) | TGI (HOP-92 NSCLC) | TGI (HT29 colon) | TGI (NCI-H460 lung) | TGI (SR leukemia) | TGI (TK-10 renal) | TGI (U251 CNS) | GI50 (A549 NSCLC) | GI50 (DU-145 prostate) | GI50 (HCC-2998 colon) | GI50 (HOP-92 NSCLC) | GI50 (NCI-H460 lung) | GI50 (SK-OV-3 ovarian) | TGI (SK-OV-3 ovarian) | GI50 (SR leukemia) | GI50 (TK-10 renal) | GI50 (HT29 colon) | GI50 (U251 CNS)
Nc1ccc2c(c1)NCCN2 | > 100 µM | > 100 µM | > 100 µM | > 100 µM | > 100 µM | > 100 µM | > 100 µM | > 100 µM | > 100 µM | – | – | – | – | – | – | – | – | – | – | –
Cc1nc2ccc(Nc3nc(NCCN4CCOCC4)nc(Nc4ccc(F)cc4)n3)cc2n1Cc1ccccc1 | > 100 µM | 71.6 µM | 6.23 µM | 6.48 µM | – | 13.2 µM | 5.23 µM | 32.2 µM | – | 3.69 µM | 5.56 µM | 2.74 µM | 1.59 µM | 3.59 µM | 4.48 µM | 17.3 µM | 1.46 µM | 7.26 µM | – | –
OCCSCc1ccccc1 | > 100 µM | > 100 µM | > 100 µM | > 100 µM | > 100 µM | > 100 µM | > 100 µM | > 100 µM | > 100 µM | – | – | – | – | – | – | > 100 µM | – | – | – | –
COc1cc(/C=C\[N+](=O)[O-])ccc1OCc1ccccc1 | 10.5 µM | 3.52 µM | 3.63 µM | 31.4 µM | 4 µM | 15.9 µM | 5.27 µM | 5.27 µM | 3.01 µM | 3.17 µM | 1.8 µM | 1.86 µM | 12.5 µM | 3.98 µM | 4.65 µM | 15.2 µM | 1.46 µM | 1.93 µM | 1.94 µM | 1.55 µM
COc1ccc(-c2cc(/C=C3\C(=O)Nc4ccc(Cl)cc43)[nH]n2)cc1 | 18.5 µM | 13.6 µM | 24.2 µM | – | 10.9 µM | 13 µM | 20.1 µM | 20.7 µM | 12.1 µM | 6.54 µM | 3.89 µM | 9.4 µM | – | 3.81 µM | 4.07 µM | 13.8 µM | 4.24 µM | 8.8 µM | 3.35 µM | 3.16 µM
O=[N+]([O-])c1ccc(N/N=C/c2c(O)ccc3ccccc23)nc1 | > 100 µM | > 100 µM | > 100 µM | 99.4 µM | > 100 µM | > 100 µM | > 100 µM | > 100 µM | > 100 µM | 27.7 µM | 6.77 µM | 28.8 µM | 7.94 µM | 3.3 µM | > 100 µM | > 100 µM | 0.665 µM | 55.9 µM | > 100 µM | 5.01 µM
CC[C@@]1(O)C(=O)NCc2c1cc1n(c2=O)Cc2cc3c(N)cccc3nc2-1 | > 69 µM | 17.9 µM | 9.24 µM | > 84.1 µM | > 100 µM | 27.8 µM | 5.35 µM | > 52.8 µM | > 46.8 µM | 2.5 µM | 1.04 µM | 2.04 µM | 8.64 µM | 0.305 µM | 4.54 µM | > 86.1 µM | 0.672 µM | 20.1 µM | 15.1 µM | 2 µM
O=c1nc(Nc2cccc(Cl)c2)oc2cc(Cl)oc(=O)c12 | 60.6 µM | 25.3 µM | 27.5 µM | 19.5 µM | 29.3 µM | 39.9 µM | 12.4 µM | 24 µM | 20.6 µM | 19.7 µM | 10.4 µM | 13.4 µM | 5.01 µM | 16.7 µM | 17.2 µM | 66.1 µM | 2.88 µM | 5.11 µM | 9.39 µM | 5.08 µM
C=C1C(=O)OC2CC1C(O)C/C(C)=C/CC/C(C)=C/C(O)CC2C (stereo not drawn) | 28.1 µM | 10.8 µM | 4.21 µM | 4.17 µM | 4.61 µM | 10.8 µM | 2.61 µM | 6.91 µM | 16.8 µM | – | – | – | – | – | – | 26.5 µM | – | – | – | –
Cn1ccn2c3nc4ccccc4nc3c(=O)c(C#N)c12 | > 100 µM | > 100 µM | > 100 µM | > 100 µM | > 100 µM | > 100 µM | > 100 µM | > 100 µM | > 100 µM | – | – | – | – | – | – | > 100 µM | – | – | – | –
COCCOC(=O)NC(=O)Nc1ccc(/C(=N/O)c2ccc(Cl)cc2)cc1 | > 85.3 µM | 20.4 µM | 7.04 µM | 44.1 µM | 15.3 µM | 13.7 µM | 10.8 µM | > 82.6 µM | 33 µM | 0.284 µM | 0.121 µM | 0.2 µM | 1.4 µM | 0.129 µM | 0.118 µM | 25.1 µM | 0.0546 µM | 16.5 µM | 0.108 µM | 0.12 µM
Nc1ccc(S(=O)(=O)C23CC4CC(CC(C4)C2)C3)cc1 | > 100 µM | > 100 µM | > 100 µM | – | > 100 µM | > 100 µM | > 100 µM | > 100 µM | > 100 µM | – | – | – | – | – | – | > 100 µM | – | – | – | –
C[C@]1(CO)[C@H]2CC[C@@]34C=C[C@@](CO)(CC[C@H]3[C@]2(C)CC[C@H]1O)C4 | > 100 µM | > 100 µM | > 100 µM | > 100 µM | > 100 µM | – | > 100 µM | > 100 µM | > 100 µM | – | – | – | – | – | – | > 100 µM | – | – | – | –
ClC(Cl)c1nc(-c2cccnc2)n2nc(-c3ccccc3)cc2n1 | 9 µM | 3.14 µM | 2.15 µM | 5.29 µM | – | 4.21 µM | > 100 µM | 6.49 µM | 5.11 µM | 1.3 µM | 0.554 µM | 0.639 µM | 2.16 µM | 1.09 µM | 1.78 µM | 5.02 µM | 0.348 µM | 1.84 µM | – | 1.46 µM
NC(=O)c1cc(Br)cc(C2CCCCC2)c1O | 27.1 µM | 24.9 µM | – | 25.7 µM | 32 µM | 30.5 µM | 34.6 µM | 28.1 µM | 23 µM | 13.4 µM | 12.3 µM | – | 12.2 µM | 15.6 µM | 17.2 µM | 31.1 µM | 14.2 µM | 13.4 µM | 16.8 µM | 10.8 µM
O=C(c1ccc2ncc(-c3nc(NC4CC4)ncc3F)n2c1)N1CCOCC1 | > 100 µM | > 100 µM | 8.99 µM | 6.86 µM | 13.1 µM | > 100 µM | 4.15 µM | – | > 100 µM | 2.48 µM | 2.68 µM | 3.01 µM | 1.93 µM | 2.91 µM | – | – | 0.513 µM | – | 2.22 µM | 2.46 µM
